The source of these data is PubChem BioAssay (NCI).

Assay in all cases: NCI-60 cell line screen, 48 h
Assay [1] has as its system BT-549 breast.
Assay [2] has as its system OVCAR-8 ovarian.
Assay [3] relates to HOP-62 NSCLC.
Assay [4] relates to UACC-257 melanoma.
In assay [5] the test system is M14 melanoma.
For assay [6], the system named is HT29 colon.
Assay [7] deals with MOLT-4 leukemia.
Assay [8] concerns HL-60(TB) leukemia.

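Each compound was tested at five concentrations against cells in 96-well plates for 48 hours. GI50 marks 50% less growth. TGI marks complete inhibition of growth.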 Where only a bound is given, the exact number is not on record here.

For the compound `O=C(O)c1cc(N=Cc2ccccc2O)cc(C(=O)O)c1`, the TGI in assay [1], in assay [2], in assay [3], in assay [4], in assay [5] and in assay [6] was above 100 µM in each case. For the same compound, the TGI in assay [7] and in assay [8] was above 100 µM throughout.
Regarding `NS(=O)(=O)c1cccc(N=Cc2c(O)[nH]c3ccccc23)c1`, the GI50 in assay [1], in assay [2], in assay [3], in assay [4], in assay [5] and in assay [6] was above 25 µM throughout. Moreover, the GI50 in assay [7] and in assay [8] was above 25 µM throughout. Further, the TGI in assay [1], in assay [2], in assay [3], in assay [4], in assay [5] and in assay [6] was above 25 µM each time. In addition, the TGI in assay [7] and in assay [8] was above 25 µM in each case.
Consider `O=C(Nc1ccc(Cl)cc1)c1cc(-c2ccc(Cl)cc2)c2sc(=O)[nH]c2n1`, for which the GI50 in assay [1] was 2.08 µM; in assay [2], 2.04 µM; in assay [3], 2.58 µM; in assay [4] it was 1.19 µM; in assay [5], 2.75 µM; in assay [6], 2.13 µM. Moreover, the GI50 in assay [7] is 2.52 µM; in assay [8], 1.27 µM. Moreover, the TGI came to 6.88 µM in assay [1]; 12.8 µM in assay [2]; 8.85 µM in assay [3]; 4.69 µM in assay [4]; 10.3 µM in assay [5]; 6.29 µM in assay [6]. The TGI in assay [7] worked out at 11.8 µM; in assay [8], 6.68 µM.
For the compound `Cc1ccc2c(c1)NC(=O)CC(c1ccccc1)=N2`, the TGI in assay [1], in assay [2], in assay [3], in assay [4], in assay [5] and in assay [6] was above 100 µM each time. In assay [7], this compound yielded a TGI of 85.8 µM.
In the case of `COc1ccc(C(=O)c2cc3c(OC)c(OC)c(OC)cc3[nH]2)cc1`, the GI50 was 8.51 µM in assay [1]; 33.7 µM in assay [2]; 19.6 µM in assay [3]; above 100 µM in assay [4]; 3.69 µM in assay [5]; 4 µM in assay [6]. Besides, the results for the GI50 in assay [7] and in assay [8] were 3.51 µM and 2.24 µM, respectively. Further, the TGI in assay [1] was above 100 µM; in assay [2], above 100 µM; in assay [3], 80.9 µM; in assay [4], above 100 µM; in assay [5], above 100 µM; in assay [6] it was above 100 µM. Moreover, the TGI is above 100 µM in assay [7] and 61.8 µM in assay [8].
For the compound `COc1cccc2c1C(=O)c1c(O)c3c(c(O)c1C2=O)C[C@@](O)(C(=O)CO)C[C@@H]3OC1C[C@H](N)[C@H](O)[C@H](C)O1` (some centres undefined), the GI50 was 0.059 µM in assay [1]; 0.067 µM in assay [2]; 0.033 µM in assay [3]; 0.102 µM in assay [4]; 0.0846 µM in assay [5]; 0.0958 µM in assay [6]. In assay [8], the GI50 is 0.078 µM. Also, the TGI in assay [1] was 0.241 µM; in assay [2] it was above 16.2 µM; in assay [3], 0.323 µM; in assay [4], 1.8 µM; in assay [5], 0.404 µM; in assay [7], 0.105 µM. The compound further gave a TGI in assay [8] of 0.593 µM.
Take `Cc1ccc2c(O)c(O)cc(NC(C)CCCN)c2n1` (centres undefined): the GI50 in assay [1] was 32.1 µM; in assay [2], 4.35 µM; in assay [3], 28.1 µM; in assay [4], 19.8 µM; in assay [5], 33.6 µM; in assay [6], 7.04 µM. Moreover, the GI50 was 2.6 µM in assay [7] and 10.7 µM in assay [8]. The TGI in assay [1] was above 68.6 µM; in assay [2], above 100 µM; in assay [3] it was above 100 µM; in assay [4], 54.5 µM; in assay [5], above 88.1 µM; in assay [6], above 72.4 µM. The TGI in assay [7] came to 8.99 µM; in assay [8], 37.8 µM.
Take `COc1cccc(/C=C/c2cnc3ccccc3n2)c1OC`: the TGI in assay [1] was 53.1 µM; in assay [2] it was above 100 µM; in assay [3], 64.9 µM; in assay [4], above 100 µM; in assay [5], above 100 µM; in assay [6], 98.1 µM. The TGI in assay [7] is 68.1 µM; in assay [8], above 100 µM.
`Cc1cc(C)c(O)c(CN(C)Cc2cc(Cl)cc(Cl)c2O)c1`: the GI50 is 11.8 µM in assay [1]; 2.78 µM in assay [2]; 5.46 µM in assay [3]; 3.14 µM in assay [4]; 9.17 µM in assay [5]; 5.1 µM in assay [6]. Moreover, the GI50 in assay [7] is 3.45 µM; in assay [8], 4 µM. The TGI came out at 27.3 µM in assay [1]; 12.1 µM in assay [2]; 18.3 µM in assay [3]; 12.1 µM in assay [4]; 22.8 µM in assay [5]; 17.4 µM in assay [6]. The TGI turned out to be 34.7 µM in assay [7] and 33 µM in assay [8].
As for `N#CCc1ncc(-c2ccc(C(F)(F)F)cc2)c(NC2CCCCCC2)n1`, the GI50 in assay [1], in assay [2], in assay [3], in assay [4], in assay [5] and in assay [6] was above 10 µM in each case. The GI50 in assay [7] and in assay [8] was above 10 µM each time. Also, the TGI in assay [1], in assay [2], in assay [3], in assay [4], in assay [5] and in assay [6] was above 10 µM in each case. Also, the TGI in assay [7] and in assay [8] was above 10 µM throughout.
On to `Cc1cc(=O)oc2cc(OCc3c(F)cccc3Cl)ccc12`, for which the TGI in assay [1] is above 100 µM; in assay [2] it was above 100 µM; in assay [3] it was 38 µM; in assay [4], above 100 µM; in assay [5], above 100 µM; in assay [8], above 100 µM.
